Measured values reported in patent publication US8263606B2 (Xenon Pharmaceuticals Inc., priority 2008, dated 2012).

Columns and labels:
[1] = target: CYP3A4 (Homo sapiens, UniProt P08684); assay: Cytochrome P450 (CYP450) Inhibition Assay, CYP3A4 (Vivid fluorescence, BOMCC substrate); conditions: human, P450 Baculosomes (recombinant CYP3A4), probe BOMCC (Vivid substrate)
[2] = system: sodium channel; assay: Guanidine influx assay (14C-guanidine radiotracer flux, in vitro); assay type: cell-based, human or rat; conditions: guanidine influx assay using a known cell line that expresses a sodium channel
Summary of the method: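 Test agents at half-step dilutions around 1 μM are added to plated cells in low-sodium HEPES buffer, then an aconitine/14C-guanidine mixture; after ambient-temperature incubation, cells are washed and counted. IC50 comes from a sigmoidal fit.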

Sequence of CYP3A4 (P08684 whole entry): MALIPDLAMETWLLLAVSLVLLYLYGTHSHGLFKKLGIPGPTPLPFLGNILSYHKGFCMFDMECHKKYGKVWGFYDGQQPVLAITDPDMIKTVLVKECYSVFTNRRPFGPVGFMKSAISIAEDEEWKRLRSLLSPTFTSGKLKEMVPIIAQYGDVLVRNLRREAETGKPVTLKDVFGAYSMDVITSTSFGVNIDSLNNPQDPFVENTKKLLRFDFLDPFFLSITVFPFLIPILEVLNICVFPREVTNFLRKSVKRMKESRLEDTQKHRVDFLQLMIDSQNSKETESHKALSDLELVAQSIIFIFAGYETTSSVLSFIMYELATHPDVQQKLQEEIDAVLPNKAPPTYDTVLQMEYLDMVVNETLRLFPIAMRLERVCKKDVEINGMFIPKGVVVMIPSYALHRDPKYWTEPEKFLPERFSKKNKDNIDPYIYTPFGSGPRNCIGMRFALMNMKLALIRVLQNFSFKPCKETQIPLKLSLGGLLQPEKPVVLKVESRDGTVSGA

Structure (SMILES)	inhibition at 10 µM [1] [%]	IC50 ([2]; activity level class) [nM]	melting point [°C]	IC50 [2] [nM]
O=C1N(Cc2ncc(F)cc2F)c2ccccc2C12COc1cc3c(cc12)OCCO3 (stereo not drawn) [Example 4.104, 1-[(3,5-difluoropyridin-2-yl)methyl]-2,3-dihydrospiro[furo[2,3-g][1,4]benzodioxine-8,3′-indol]-2′(1′H)-one]	< 50	1 to 100	220 to 222	
COc1ccc(CN2C(=O)C3(COc4cc5c(cc43)OCCO5)c3ccccc32)cc1OC (stereo not drawn) [Example 4.46, 1′-(3,4-dimethoxybenzyl)-2,3-dihydrospiro[furo[2,3-g][1,4]benzodioxine-8,3′-indol]-2′(1′H)-one]	> 50	1 to 100	209 to 211	
O=C1N(Cc2ncccc2F)c2ccccc2C12COc1cc3c(cc12)OCCO3 (stereo not drawn) [Example 4.101, 1-[(3-fluoropyridin-2-yl)methyl]-2,3-dihydrospiro[furo[2,3-g][1,4]benzodioxine-8,3′-indol]-2′(1′H)-one]	< 50	1 to 100	247 to 249	
O=C1Nc2c(F)cccc2C12COc1cc3c(cc12)CCO3 (stereo not drawn) [Example 3.16, 7′-fluoro-5,6-dihydrospiro[benzo[1,2-b:5,4-b′]difuran-3,3′-indol]-2′(1′H)-one]	< 50	100 to 1000	> 250	
COc1ccc(CN2C(=O)C3(COc4cc5c(cc43)CCO5)c3c2ccc2ncccc32)cc1 (stereo not drawn) [Example 2.38, 3′-(4-methoxybenzyl)-5,6-dihydrospiro[benzo[1,2-b:5,4-b′]difuran-3,1′-pyrrolo[3,2-f]quinolin]-2′(3′H)-one]	> 50	100 to 1000	169 to 170	
O=C1Nc2c(Cl)cccc2C12COc1cc3c(cc12)CCO3 (stereo not drawn) [Example 3.15, 7′-chloro-5,6-dihydrospiro[benzo[1,2-b:5,4-b′]difuran-3,3′-indol]-2′(1′H)-one]	< 50	100 to 1000	> 250	
O=C1N(C[C@H]2OC(O)[C@H](O)[C@@H](O)[C@H]2O)c2ccccc2C12COc1cc3c(cc12)OCCO3 (stereo partly drawn) [Example 20, 6-deoxy-6-(2′-oxo-2,3-dihydrospiro[furo[2,3-g][1,4]benzodioxine-8,3′-indol]-1′(2′H)-yl)-D-galactopyranose]	< 50		122 to 126	1000 to 10000
Cc1cccc(CN2C(=O)C3(COc4cc5c(cc43)OCCO5)c3ccccc32)n1 (stereo not drawn) [Example 1.1, 1′-[(6-methylpyridin-2-yl)methyl]-2,3-dihydrospiro[furo[2,3-g][1,4]benzodioxine-8,3′-indol]-2′(1′H)-one]	> 50	1 to 100	183 to 185	
CC(C)c1nc(CN2C(=O)C3(COc4cc5c(cc43)OCO5)c3cccc(C#N)c32)cs1 (stereo not drawn) [Example 4.88, 1′-[(2-isopropyl-1,3-thiazol-4-yl)methyl]-2′-oxo-1′,2′-dihydrospiro[furo[2,3-f][1,3]benzodioxole-7,3′-indole]-7′-carbonitrile]	> 50	1 to 100	162 to 163	
Cn1c(=O)oc2cc3c(cc21)OCC31C(=O)N(C(c2ccccc2)c2ccccc2)c2ccccc21 (stereo not drawn) [Example 2.16, 1′-(diphenylmethyl)-3-methylspiro[furo[2,3-f][1,3]benzoxazole-7,3′-indole]-2,2′(1′H,3H)-dione]	< 50	≥ 10000	228 to 229	
O=C1N(C2CC2)c2ccccc2C12COc1cc3c(cc12)OCCO3 (stereo not drawn) [Example 21, 1′-cyclopropyl-2,3-dihydrospiro[furo[2,3-g][1,4]benzodioxine-8,3′-indol]-2′(1′H)-one]	< 50		227 to 228	1 to 100
Nc1nc(C(F)(F)F)c(CN2C(=O)C3(COc4cc5c(cc43)OCO5)c3ccccc32)s1 (stereo not drawn) [Example 4.82, 1′-{[2-amino-4-(trifluoromethyl)-1,3-thiazol-5-yl]methyl}spiro[furo[2,3-f][1,3]benzodioxole-7,3′-indol]-2′(1′H)-one]	> 50	100 to 1000	165 to 167	

More lines, now with the values ahead:

inhibition at 10 µM [1] [%]	IC50 ([2]; activity level class) [nM]	melting point [°C]	IC50 [2] [nM]	Structure (SMILES)
> 50		> 250	100 to 1000	O=C(NC1CCC1)c1ccc(CN2C(=O)C3(COc4cc5c(cc43)CCO5)c3ccccc32)cc1 (stereo not drawn) [Example 12.42, N-cyclobutyl-4-[(2-oxo-5,6-dihydrospiro[benzo[1,2-b:5,4-b′]difuran-3,3-indol]-1(2H)-yl)methyl]benzamide]
< 50	1 to 100	162 to 164		O=C1N(CC2CC2(F)F)c2ccccc2C12COc1cc3c(cc12)OCCO3 (stereo not drawn) [Example 5.21, 1′-[(2,2-difluorocyclopropyl)methyl]-2,3-dihydrospiro[furo[2,3-g][1,4]benzodioxine-8,3′-indol]-2′(1′H)-one]
< 50	100 to 1000	162 to 164		O=C1N(C[C@H]2CCCO2)c2ccccc2C12COc1cc3c(cc12)OCC3 (stereo partly drawn) [Example 8.9, 1′-[(2R)-tetrahydrofuran-2-ylmethyl]-6,7-dihydrospiro[benzo[1,2-b:4,5-b′]difuran-3,3′-indol]-2′(1′H)-one]
< 50		> 230	≥ 10000	CCc1ccc(NC(=O)c2ccccc2CN2C(=O)C3(COc4cc5c(cc43)CCO5)c3ccccc32)cc1 (stereo not drawn) [Example 12.8, N-(4-ethylphenyl)-2-[(2′-oxo-5,6-dihydrospiro[benzo[1,2-b:5,4-b′]difuran-3,3′-indol]-1′(2′H)-yl)methyl]benzamide]
> 50		190 to 192	100 to 1000	Nc1cccc2c1C1(COc3cc4c(cc31)CCO4)C(=O)N2C[C@H]1CCCO1 (stereo partly drawn) [Example 11.39, 4′-amino-1′-[(2R)-tetrahydrofuran-2-ylmethyl]-5,6-dihydrospiro[benzo[1,2-b:5,4-b′]difuran-3,3′-indol]-2′(1′H)-one]
< 50		209 to 211	1000 to 10000	N#Cc1cc2c(cc1F)OCC21C(=O)N(Cc2ncccc2C(F)(F)F)c2ccccc21 (stereo not drawn) [Example 9.51, 6-fluoro-2′-oxo-1′-{[3-(trifluoromethyl)pyridin-2-yl]methyl}-1′,2′-dihydrospiro[1-benzofuran-3,3′-indole]-5-carbonitrile]
< 50	100 to 1000	81 to 82		O=C1N(Cc2cccnn2)c2ccccc2C12COc1cc3c(cc12)CCO3 (stereo not drawn) [Example 9.9, 1′-(pyridazin-3-ylmethyl)-5,6-dihydrospiro[benzo[1,2-b:5,4-b′]difuran-3,3′-indol]-2′(1′H)-one]
< 50		170 to 173	1 to 100	Cc1noc2cc3c(cc12)C1(CO3)C(=O)N(Cc2cnccn2)c2ccccc21 (stereo not drawn) [Example 9.56, 3-methyl-1′-(pyrazin-2-ylmethyl)spiro[furo[3,2-f][1,2]benzisoxazole-5,3′-indol]-2′(1′H)-one]
< 50		> 250	100 to 1000	O=C(Nc1nccs1)c1ccc(CN2C(=O)C3(COc4cc5c(cc43)CCO5)c3ccccc32)cc1 (stereo not drawn) [Example 12.43, 4-[(2′-oxo-5,6-dihydrospiro[benzo[1,2-b:5,4-b′]difuran-3,3′-indol]-1′(2′H)-yl)methyl]-N-1,3-thiazol-2-ylbenzamide]
> 50	1000 to 10000	108 to 109		N#Cc1cc2c(cc1F)OCC21C(=O)N(Cc2ccccn2)c2ccccc21 (stereo not drawn) [Example 9.48, 6-fluoro-2′-oxo-1′-(pyridin-2-ylmethyl)-1′,2′-dihydrospiro[1-benzofuran-3,3′-indole]-5-carbonitrile]
> 50	1 to 100	169 to 170		COc1cc(OC)nc(CN2C(=O)C3(COc4cc5c(cc43)OCCO5)c3ccccc32)n1 (stereo not drawn) [Example 5.33, 1′-[(4,6-dimethoxypyrimidin-2-yl)methyl]-2,3-dihydrospiro[furo[2,3-g][1,4]benzodioxine-8,3′-indol]-2′(1′H)-one]
< 50	100 to 1000	165 to 168		Cc1cc2c(cc1C)C1(CO2)C(=O)N(Cc2ccccn2)c2ccccc21 (stereo not drawn) [Example 9.28, 5,6-dimethyl-1′-(pyridin-2-ylmethyl)spiro[1-benzofuran-3,3′-indol]-2′(1′H)-one]
> 50		214 to 216	1000 to 10000	Cc1ccc(F)c(NC(=O)c2ccccc2CN2C(=O)C3(COc4cc5c(cc43)CCO5)c3ccccc32)c1 (stereo not drawn) [Example 12.20, N-(2-fluoro-5-methylphenyl)-2-[(2′-oxo-5,6-dihydrospiro[benzo[1,2-b:5,4-b′]difuran-3,3′-indol]-1′(2′H)-yl)methyl]benzamide]
< 50	100 to 1000	205 to 206		O=C1N(Cc2ccccn2)c2ccccc2C12COc1c2ccc2c1OCCO2 (stereo not drawn) [Example 5.36, 1-(pyridin-2-ylmethyl)-2,3-dihydrospiro[furo[2,3-f][1,4]benzodioxine-7,3′-indol]-2′(1′H)-one]
> 50		207 to 209	1 to 100	N#Cc1csc(CN2C(=O)C3(COc4cc5c(cc43)OCO5)c3ccccc32)c1 (stereo not drawn) [Example 11.74, 5-[(2′-oxospiro[furo[2,3-][1,3′]benzodioxole-7,3′-indol]-1′(2′H)-yl)methyl]thiophene-3-carbonitrile]
